Experimental data: patent US11912569B2, “Method for manufacturing chlorous acid water using raw material obtained by salt electrolysis” (HONBUSANKEI CO., LTD., priority 2016, dated 2024)
Read-outs that look alike come from different tables or passages of the source.

How the values were obtained:
E. coli [1] = type: cell-based
Procedure: The following samples were prepared to measure the oxidation capability: sodium hypochlorite converted concentration and phenol coefficient for each of the chlorine oxides.
These samples were used to measure the oxidation capability: sodium hypochlorite converted concentration and phenol coefficient while appropriately dilution with ion exchange water.
The following sample was prepared. The oxidation capability and phenol coefficient were measured immediately after manufacture and on day 5.
They were compared based on dissolved chlorine dioxide as the control.

E. coli [2] = experiment: Phenol coefficient method; type: cell-based
Procedure: The following is the operation method thereof.
5% phenol solution: Phenol is dissolved with hot water of about 70° C. 25 mL is measured out and precisely diluted to 500 mL with water (40° C.). The specific gravity at 20° C. is confirmed to be within the range of 1.000±0.005.
Liquid medium (1 L volume): 18.0 g of normal broth medium is added to 1 L of water in a 1000 mL Erlenmeyer flask with a stopper. They are mixed and dissolved for about 30 minutes at normal temperature.
Liquid medium (volume of 200 mL): about 18.0 g of normal broth medium is added to 1 L of water. They were mixed and dissolved for about 30 minutes at normal temperature.
Liquid medium (test tube): about 18.0 g of normal broth medium is added to 1 L of water. […]
The inoculated test tube is placed in a vortex mixer and sealed, and incubated for 24 hours at 37° C. Test segments observed to have opacity after incubation are recorded as “+” and test segments without opacity are recorded as “−”. However, a cotton swab is immersed in the liquid medium of the test segments evaluated as “+”, and the medium is smeared onto a desoxycholate medium (flat plate) from the center to the outside so as to draw a straight line. […]
After culturing for a predetermined time, samples observed to have a typical red colony where the medium was smeared are evaluated as “+”, and samples with no observed red colony is evaluated as “−”. […]

| Molecule | Oxidation capability: sodium hypochlorite converted concentration at each phenol coefficient (E. coli [1]; phenol coefficient 0) | Oxidation capability: sodium hypochlorite converted concentration at each phenol coefficient (E. coli [1]; phenol coefficient 1) | Oxidation capability: sodium hypochlorite converted concentration at each phenol coefficient (E. coli [1]; phenol coefficient 2) | Oxidation capability: sodium hypochlorite converted concentration at each phenol coefficient (E. coli [1]; phenol coefficient 3) | Oxidation capability: sodium hypochlorite converted concentration at each phenol coefficient (E. coli [1]; phenol coefficient 5) | Oxidation capability: sodium hypochlorite converted concentration at each phenol coefficient (E. coli [1]; phenol coefficient 10) | Oxidation capability: sodium hypochlorite converted concentration at each phenol coefficient (E. coli [1]; phenol coefficient 15) | Oxidation capability: sodium hypochlorite converted concentration at each phenol coefficient (E. coli [1]; phenol coefficient 25) | phenol coefficient (E. coli [2]; available chlorine concentration of 25% (w/v), saturation concentration) | phenol coefficient per oxidation capability (100) (E. coli [2]; phenol coefficient divided by oxidation capability and multiplied by 100, from the values of Example 1) |
| --- | --- | --- | --- | --- | --- | --- | --- | --- | --- | --- |
| [O][Cl+][O-] [Dissolved chlorine dioxide] | 0 | 139 | 279 | 418 | 697 | 1395 | 2092 | 3487 |  |  |
| sodium chlorite | 0 | nonexistent | nonexistent | nonexistent | nonexistent | nonexistent | nonexistent | nonexistent | 0 | 0 |
